What was measured:
[1] = test system: clonal bacterial isolates from 11 diverse soils; type: cell-based, soil bacteria; settings: antibiotic as sole carbon source at 1 g/L in SCS media pH 5.5, 22° C., positive growth at least 10^8 cells/mL
Method: The pH was adjusted to 5.5 using HCl, and the media was sterilized through a 0.22 μm filter. Solid medium was prepared by adding 15 g agar per liter of liquid SCS media followed by autoclaving before adding antibiotics.
Clonal isolates from the liquid cultures were obtained by plating cultures out on SCS-antibiotic agar medium and resulting single colonies were picked and re-streaked on corresponding plates. Three colonies each were then inoculated into fresh SCS-antibiotic liquid media (5 mL) to confirm clonal phenotype. Final culture growth was recorded after 1 month incubation without shaking at 22° C. and cultures with at least 10^8 cells/mL were assayed as positive growth.
All antibiotics used were purchased from Sigma-Aldrich at the highest purities available.

[2] = Un-inoculated media controls monitored by HPLC (antibiotic stability in SCS medium); type: physicochemical; settings: 20 or 28 days, HPLC at 214 nm
Method: Representative isolates capable of growth on penicillin and carbenicillin as sole carbon source were selected for analysis of antibiotic removal from the growth media by High Performance Liquid Chromatography (HPLC). 2 μL of these cultures were re-inoculated into fresh SCS-antibiotic medium (5 mL) and allowed to grow for 28 days. Samples of the cultures and un-inoculated media controls were taken at regular intervals throughout the 28 day period and the catabolism of penicillin and carbenicillin was monitored at 214 nm by HPLC of filtered media from samples using a Hewlett Packard 1090 Liquid Chromatograph and a Vydac C-18 column. HPLC was performed at a flow rate of 0.3 mL/min with an acetonitrile gradient going from 5% to 65% in 30 minutes in the presence of 0.1% trifluoroacetic acid.

Compound	soils from which clonal isolates capable of subsisting on the antibiotic were obtained [1]	antibiotic peak in the un-inoculated control over the same time course [2]
CC1(C)S[C@@H]2[C@H](NC(=O)C(C(=O)O)c3ccccc3)C(=O)N2[C@H]1C(=O)O (stereo partly drawn) [carbenicillin, Carbenicillin]	all the soils tested	remained relatively unchanged
Cc1onc(-c2c(Cl)cccc2Cl)c1C(=O)N[C@@H]1C(=O)N2[C@@H]1SC(C)(C)[C@@H]2C(=O)O [dicloxacillin, Dicloxacillin]	9 out of 11 soils	
CCn1cc(C(=O)O)c(=O)c2ccc(C)nc21 [nalidixic acid, Nalidixic acid]	a majority of the soils	
CC1(C)S[C@@H]2[C@H](NC(=O)Cc3ccccc3)C(=O)N2[C@H]1C(=O)O [penicillin, Penicillin G]	all the soils tested	remained the dominant peak

From patent US8658416B2, “Toxin-eating bacteria and bioremediation” (priority 2008, dated 2014)
